Active and inactive are the calls of the source.
System: Jurkat
Assay: Induction of necroptosis in human Jurkat T cells incubated for 24 hrs by ATP-based cell viability assay
Format: functional
Conditions: Homo sapiens, Jurkat, 24 h; read-out: EC50

| SMILES | EC50 |
| --- | --- |
| Oc1ccccc1CNc1ccc(-c2cccc(Cl)c2)cc1 | 6.2 µM |
| CC(C)Oc1ccc(-c2ccc(NCc3ccccc3O)cc2)cc1 | 5.94 µM |
| Oc1ccccc1CNc1ccc(-c2ccc(F)cc2)cc1 | 3.86 µM |
| CCCc1ccc(-c2ccc(NCc3ccccc3O)cc2)cc1 | 2.39 µM |
| Oc1ccccc1CNc1ccc(-c2cccc(F)c2)cc1 | 2.02 µM |
| COc1ccc(-c2ccc(NCc3ccccc3O)cc2)cc1 | 0.58 µM |
| Oc1ccccc1CNc1ccc(-c2ccccc2)c(F)c1 | 2.85 µM |
| CCOc1ccc(-c2ccc(NCc3ccccc3O)cc2)cc1F | 2.53 µM |
| Oc1ccccc1CNc1ccc(-c2ccccc2F)cc1 | 2.15 µM |
| Oc1ccccc1CNc1ccc(-c2ccc(Cl)cc2)cc1 | 2.39 µM |
| Oc1ccccc1CNc1ccc(-c2ccccc2)cc1 | 1.82 µM |
| CCSc1ccc(-c2ccc(NCc3ccccc3O)cc2)cc1 | 1.98 µM |
| CCSc1ccc(-c2ccc(NCc3ccccc3O)cn2)cc1 | 1.92 µM |
| CCOc1ccc(-c2ccc(NCc3ccccc3O)cc2)cc1 | 0.52 µM |
| Oc1ccccc1CNc1ccc(-c2ccc(F)cc2)nc1 | 2.59 µM |
| Cc1ccccc1-c1ccc(NCc2ccccc2O)cc1 | 5.22 µM |
| Oc1ccccc1CNc1ccc(C2CCCCC2)cc1 | 8.8 µM |
| COc1ccc(-c2ccc(NCc3ccccc3O)cn2)cc1 | 4.76 µM |
| Cc1cccc(-c2ccc(NCc3ccccc3O)cc2)c1 | 9.19 µM |
| Oc1ccccc1CNc1ccc(-c2ccccc2)cc1F | 5.35 µM |
| Cc1ccc(-c2ccc(NCc3ccccc3O)cc2)cc1 | 3.79 µM |
| Oc1ccccc1CNc1ccc(-c2ccccc2)nc1 | 0.84 µM |
| Cc1cc(NCc2ccccc2O)ccc1-c1ccccc1 | 8.61 µM |

Same assay, conditions: jurkat

| SMILES | EC50 |
| --- | --- |
| Oc1cc(C(F)(F)F)ccc1CNc1ccc(C2CCCCC2)cc1 | Not Active |
| Cc1ccc(-c2ccc(NCc3ccccc3O)cn2)cc1 | Not Active |
| Oc1ccccc1CNc1ccc(N2CCCCC2)cc1 | Not Active |
| CN1CCN(c2ccc(NCc3ccccc3O)cc2)CC1 | Not Active |
| Oc1ccccc1CCNc1ccc(C2CCCCC2)cc1 | Not Active |
| CC(C)(C)c1ccc(-c2ccc(NCc3ccccc3O)cc2)cc1 | Not Active |
| Oc1ccccc1CNc1ccc(-c2ccccc2)cn1 | Not Active |
| c1ccc(CNc2ccc(C3CCCCC3)cc2)cc1 | Not Active |
| Oc1ccccc1CNc1ccc(-c2ccc(C(F)(F)F)cc2)cc1 | Not Active |
| Oc1ccccc1CNc1ccc(-c2cccc(OC(F)(F)F)c2)cc1 | Not Active |
| COc1ccccc1CNc1ccc(C2CCCCC2)cc1 | Not Active |
| Oc1ccccc1CNc1ccccc1 | Not Active |
| COc1ccccc1-c1ccc(NCc2ccccc2O)cc1 | Not Active |
| Oc1cccc(-c2ccc(NCc3ccccc3O)cc2)c1 | Not Active |
| Oc1ccccc1CNc1ccc(F)cc1 | Not Active |
| CC(Nc1ccc(C2CCCCC2)cc1)c1ccccc1O (stereo not given) | Not Active |
| Oc1ccccc1CNc1ccc(-c2ccc(OC(F)(F)F)cc2)cc1 | Not Active |
| O=C(Nc1ccc(C2CCCCC2)cc1)c1ccccc1O | Not Active |
| Oc1ccccc1CNc1ccc(-c2ccccc2Cl)cc1 | Not Active |
| COc1cccc(-c2ccc(NCc3ccccc3O)cc2)c1 | Not Active |
| Oc1ccccc1CCc1ccc(C2CCCCC2)cc1 | Not Active |
| Cc1cccc(CNc2ccc(C3CCCCC3)cc2)c1O | Not Active |
| COc1ccc(CNc2ccc(C3CCCCC3)cc2)c(O)c1 | Not Active |
| Cc1ccc(CNc2ccc(C3CCCCC3)cc2)c(O)c1 | Not Active |
| Oc1cc(-c2ccccc2)ccc1CNc1ccc(C2CCCCC2)cc1 | Not Active |
| Oc1ccccc1/C=N/c1ccc(C2CCCCC2)cc1 | Not Active |

| SMILES | EC50 |
| --- | --- |
| O=[N+]([O-])c1ccc(NCc2ccccc2O)cc1 | Not Active |
| CC(=O)c1ccc(-c2ccc(NCc3ccccc3O)cc2)cc1 | Not Active |
| CN(Cc1ccccc1O)c1ccc(C2CCCCC2)cc1 | Not Active |
| CCOc1cccc(-c2ccc(NCc3ccccc3O)cc2)c1 | Not Active |
| Oc1ccc(-c2ccc(NCc3ccccc3O)cc2)cc1 | Not Active |
| Cc1ccc(O)c(CNc2ccc(C3CCCCC3)cc2)c1 | Not Active |
| Oc1ccc(CNc2ccc(C3CCCCC3)cc2)cc1 | Not Active |
| Cc1cc(-c2ccccc2)ccc1NCc1ccccc1O | Not Active |
| Oc1ccccc1CNc1ccc(-c2ccc(-c3ccccc3)cc2)cc1 | Not Active |
| Oc1ccccc1CNc1ccc(-c2cccc(OCc3ccccc3)c2)cc1 | Not Active |
| Oc1ccccc1CNc1ccc(N2CCNCC2)cc1 | Not Active |
| Oc1cc(I)ccc1CNc1ccc(C2CCCCC2)cc1 | Not Active |
| Oc1ccccc1NCc1ccc(C2CCCCC2)cc1 | Not Active |
| COC(=O)c1ccc(-c2ccc(NCc3ccccc3O)cc2)cc1 | Not Active |
| Oc1cc(F)ccc1CNc1ccc(C2CCCCC2)cc1 | Not Active |
| N#Cc1ccccc1-c1ccc(NCc2ccccc2O)cc1 | Not Active |
| Oc1ccccc1CNc1ccc(-c2ccc(Cl)cc2)nc1 | Not Active |
| N#Cc1ccc(-c2ccc(NCc3ccccc3O)cc2)cc1 | Not Active |
| Oc1ccccc1CNc1ccc(-c2ccc(N3CCOCC3)cc2)nc1 | Not Active |
| Oc1ccccc1CNc1nc(-c2ccccc2)cs1 | Not Active |
| CCOc1ccc(-c2ccc(NCc3ccccc3O)cn2)cc1 | Not Active |
| CCCOc1ccc(-c2ccc(NCc3ccccc3O)cc2)cc1 | Not Active |
| Oc1ccccc1CNc1ccc(N2CCCC2)cc1 | Not Active |
| Oc1ccccc1CNc1cc(-c2ccccc2)no1 | Not Active |
| Oc1ccccc1Nc1ccc(C2CCCCC2)cc1 | Not Active |

System: Jurkat
Assay: Induction of necroptosis in human Jurkat T cells incubated for 24 hrs in presence of Nec-8 by ATP-based cell viability assay
Format: functional
Conditions: not given

| SMILES | Activity |
| --- | --- |
| Oc1ccccc1CNc1ccc(C2CCCCC2)cc1 | inactive |

System: Jurkat
Assay: Induction of necroptosis in human Jurkat T cells incubated for 24 hrs in presence of caspase inhibitor zVAD.fmk by ATP-based cell viability assay
Format: functional
Conditions: not given

| SMILES | Activity |
| --- | --- |
| Oc1ccccc1CNc1ccc(C2CCCCC2)cc1 | Active |

System: Jurkat
Assay: Induction of necroptosis in human Jurkat T cells incubated for 24 hrs in presence of RIPK1 inhibitor Nec-1 by ATP-based cell viability assay
Format: functional
Conditions: not given

| SMILES | Activity |
| --- | --- |
| Oc1ccccc1CNc1ccc(C2CCCCC2)cc1 | Active |

System: Jurkat (Homo sapiens)
Assay: Potency index, ratio of EC50 for E6 to EC50 for test compound for induction of necroptosis in human Jurkat T cells incubated for 24 hrs by ATP-based cell viability assay
Conditions: not given

| SMILES | Ratio EC50 |
| --- | --- |
| COc1ccc(-c2ccc(NCc3ccccc3O)cc2)cc1 | 17 |
| Oc1ccccc1CNc1ccc(-c2ccccc2)cc1 | 5 |
| CCOc1ccc(-c2ccc(NCc3ccccc3O)cc2)cc1 | 17 |
